Earlier results, collected in patent EP1136069A1, “Pharmaceutical compositions containing clodronates for high local tolerance intramuscular administration” (SPA SOCIETA' PRODOTTI ANTIBIOTICI S.p.A., priority 2000, dated 2001).

Settings: oral route

In the case of `O=P(O)(O)C(Cl)(Cl)P(=O)(O)O` [clodronate], the bioavailability is listed as 1-4%.
